The test system of assay [1] is Smad2/Smad3 phosphorylation. Description: Phospho-Smad2/3 Inhibition Assay (western blot), Panc-1. In kind it is cell-based, human. As to conditions: at 10 μM, Panc-1 pancreatic cancer cell line; starred symbols = activation. As for the experimental part:
Protocol for Phospho-Smad2/3 Inhibition Assay
This assay is referred to as the “Phospho-Smad2/3 Inhibition Assay” throughout this application.
Cell lines: Human tumor-derived pancreatic cancer cell line Panc-1 (expressing KRas G12D mutant) and mouse muscle myoblast C2C12 were purchased from American Type Culture Collection and grown in complete DMEM-High Glucose, supplemented with penicillin (100 U/mL), streptomycin (100 μg/mL), and 10% heat-inactivated FBS at 37° C. in a humidified incubator with 5% CO2.
Method: Cells were plated at 350000 cells/well density in a 12-well plate, allowed 3 hours to adhere to the plate, then starved in the appropriate medium in the presence of 0.5% FBS overnight. The small molecules to be tested were added to the cells in the final concentration of 10 μM in the presence of 0.3% DMSO for 3 hours incubation at 37° C. For IC50 value determination, serial dilutions of compounds were added to cells under the same conditions. Next, Panc-1 cells were stimulated with 10 ng/ml TGF-b1 for 1 hour, and C2C12 cells were stimulated with 10 ng/ml TGF-b1 for 20 minutes (recombinant human TGF-b1, R&D Systems). After stimulation cells were lysed with lysis buffer containing 1% Triton X-100, EDTA, and Halt™ Protease & Phosphatase Inhibitor Cocktail (Thermo Scientific). Protein concentration was assessed by BCA protein assay (Thermo Scientific). Phosphorylation level of Smad2/Smad3 was determined by western blot.
Western blot protocol: Equal amounts of protein (15-50 μg) were separated by SDS-PAGE and transferred to nitrocellulose membranes (Invitrogen by Thermo Fisher Scientific). The membrane was stained with Ponceau S Stain (Boston BioProducts) to verify uniform protein loading. Membranes were blocked with 10% milk and phosphorylation levels of Smad2/Smad3 were assessed by incubating overnight at 4° C. with the following antibodies: Phospho-Smad2 (Ser465/467) and Phosph-Smad3 (Ser423/425), both from Cell Signaling Technology. Then the membranes were incubated with HRP-conjugated secondary antibody (Jackson Immunoresearch, West Grove, PA). Bands were incubated in Amersham ECL Prime Western Blotting Detection Reagent (GE Healthcare) and visualized using the ChemiDoc MP imaging system (Bio-Rad).
A general note: In western blotting, separated proteins are transferred to a membrane and probed.

The test system of assay [2] is MiaPaca-2 (expressing KRAS G12C mutant). Description: Proliferation Assay (Cell Viability Assay). In kind it is cell-based. The following applies: Homo sapiens, MIA PaCa-2; for pIC50: read-out: Proliferation in MiaPaca-2: IC50. How it is done:
Protocol for Proliferation Assay
This assay is referred to as the “Proliferation Assay” or “Cell Viability Assay” throughout this application.
Cell lines: Human tumor-derived cell lines were purchased from American Type Culture Collection. Human tumor-derived pancreatic cancer cell line MiaPaca-2 (expressing KRAS G12C mutant) and Panc-1 (expressing KRas G12D mutant), and Human non-small cell lung cancer (NSCLC) cell line A549 (expressing KRas G12S mutant) were grown in complete DMEM-High Glucose medium. Human colon cancer cell line SW-620 (expressing KRas G12V mutant) was grown in RPMI 1640 medium. All cell lines were supplemented with penicillin (100 U/mL), streptomycin (100 μg/mL), and 10% heat-inactivated FBS at 37° C. in a humidified incubator with 5% CO2.
Method: Cells were plated at 2000 to 5000 cells/well density in 96-wells plate and cultured overnight. Small molecules to be tested were added to the cells in the final concentration of 10 μM in the presence of 0.3% DMSO and 10% FBS and incubated for 2-4 days at 37° C. in a humidified incubator with 5% CO2. For IC50 value determination, serial dilutions of compounds were added to cells under the same conditions.
Assay: At the end of the incubation period, cell viability was determined using the CellTiter 96® Aqueous One Solution Cell Proliferation Assay according to manufacturer specifications (Promega, Madison, WI). The percentage of small molecules inhibition of cellular proliferation was calculated from raw data.
Cell lines: these Human tumor-derived cell lines were purchased from American Type Culture Collection. Human tumor-derived pancreatic cancer cell line MiaPaca-2 (expressing KRAS G12C mutant) and Panc-1 (expressing KRas G12D mutant), and Human non-small cell lung cancer (NSCLC) cell line A549 (expressing KRas G12S mutant), and Human melanoma cell line A375 (wild type Kras) were grown in complete DMEM-High Glucose medium. Human tumor-derived pancreatic cancer cell lines SU86.86 (expressing KRas G12D mutant), BxPC3 (expressing wild type K-Ras), and Human non-small cell lung cancer (NSCLC) cell lines NCI-H441 (expressing KRas G12S mutant), NCI-H1975 (expressing wild type KRas), NCI-H358 (expressing KRas G12C mutant), NCI-H1299 (expressing NRas Q61H mutant), and Human colon cancer cell line SW-620 (expressing KRas G12V mutant), Human triple negative breast cancer cell line HCC-1806 (expressing wild type KRas), and Human tumor-derived multiple myeloma cell line MM.1R (expressing wild type KRAS), were grown in RPMI 1640 medium. Human tumor-derived breast cancer cell line BT-549 (expressing wild type KRAS) was grown in RPMI 1640 medium in the presence of 11.8U insulin. Human tumor-derived pancreatic cancer cell line HPAF-II (expressing KRas G12D mutant), Human triple negative breast cancer cell line BT-20 (expressing wild type KRas), and Human colon cancer cell line LS123 (expressing KRas G12S mutant), were grown in EMEM medium. Human tumor-derived pancreatic cancer cell line CF-PAC1 (expressing KRas G12V mutant) was frown in IMDM medium, and Human colon cancer cell line HT29 (expressing wild type KRas) was grown in McCoy's 5A medium. The colon cancer cell line GP2d (expressing KRas G12D mutant) was purchased from MilliporeSigma and grown in DMEM-High Glucose medium. All cell lines were supplemented with penicillin (100 U/mL), streptomycin (100 μg/mL), and 10% heat-inactivated FBS at 37° C. in a humidified incubator with 5% CO2.
Method: Cells were plated at 2000 to 5000 cells/well density in 96-wells plate and cultured overnight. Small molecules that were tested were added to the cells in the final concentration of 10 μM in the presence of 0.3% DMSO and 10% FBS, and incubated for 2-4 days at 37° C. in a humidified incubator with 5% CO2. For IC50 value determination, serial dilutions of compounds were added to cells under the same conditions.

A word on the IC50: it is the point on the concentration scale where inhibition reaches its midpoint.

pIC50: −log10 of the molar value. Read-outs that look alike come from different tables or passages of the source. A value given as a limit tells only on which side of the number the result lay.

`Cc1c(-c2ccn(C)n2)cn2nc(-c3nccn3C)nc(Nc3cc(OCC(F)(F)F)ccn3)c12` [Compound 129, 5-Methyl-2-(1-methyl-1H-imidazol-2-yl)-6-(1-methyl-1H-pyrazol-3-yl)-N-(4-(2,2,2-trifluoroethoxy)pyridin-2-yl)pyrrolo[2,1-f][1,2,4]triazin-4-amine]: the “% inh of Smad2/3 phosphorylation in Panc-1” value (“% inh” below) in assay [1] is “D* (D* = 76-100% activation)”. For the same compound, in assay [2], the pIC50 is > 6.82.
For `Cc1c(-c2ccn(C(C)C)n2)cn2nc(-c3nccn3C)nc(Nc3cc(OCCN(C)C)ncn3)c12` [Compound 123, N-(6-(2-(Dimethylamino)ethoxy)pyrimidin-4-yl)-6-(1-isopropyl-1H-pyrazol-3-yl)-5-methyl-2-(1-methyl-1H-imidazol-2-yl)pyrrolo[2,1-f][1,2,4]triazin-4-amine], in that order: “B (B = 26-45% inhibition)” and > 6.82.
As to `COCCO[C@H]1C[C@H](Nc2nc(-c3nccn3C)nn3cc(-c4ccnc(OC)c4)c(C)c23)C1` [Compound 161, N-((1r,3r)-3-(2-Methoxy-ethoxy)cyclo-butyl)-6-(2-methoxy-pyridin-4-yl)-5-methyl-2-(1-methyl-1H-imidazol-2-yl)pyrrolo[2,1-f][1,2,4]triazin-4-amine], the “% inh” value in assay [1] is reported as “B (B = 26-45% inhibition)”. Besides, the pIC50 in assay [2] is < 6.00.
With `COc1ccnc(Nc2nc(-c3nccn3C)nn3cc(-c4ccn(C)n4)c(C)c23)c1` [Compound 102, N-(4-Methoxypyridin-2-yl)-5-methyl-2-(1-methyl-1H-imidazol-2-yl)-6-(1-methyl-1H-pyrazol-3-yl)pyrrolo[2,1-f][1,2,4]triazin-4-amine], in assay [1], the “% inh” value was “A* (A* = 1-25% activation)”. Moreover, in assay [2] (Proliferation assay, MiaPaca-2, read-out: MiaPaca-2 IC50 (nM) Pancreatic), the IC50 was in the range of 1 to 10 nM. Moreover, in assay [2], the pIC50 was > 6.82.
Take `Cc1ccnc(Nc2nc(-c3nccn3C)nn3cc(-c4ccn(C5CC5)n4)c(C)c23)c1` [Compound 144, 6-(1-Cyclopropyl-1H-pyrazol-3-yl)-5-methyl-2-(1-methyl-1H-imidazol-2-yl)-N-(4-methylpyridin-2-yl)pyrrolo[2,1-f][1,2,4]triazin-4-amine]: the “% inh” value in assay [1] is “D (D = 76-100% inhibition)”. The pIC50 in assay [2] is > 6.82.
`COc1ccnc(Nc2nc(-c3nccn3C)nn3cc(-c4cnn(C(C)C)c4)c(C)c23)c1` [Compound 165, 6-(1-Isopropyl-1H-pyrazol-4-yl)-N-(4-methoxypyridin-2-yl)-5-methyl-2-(1-methyl-1H-imidazol-2-yl)pyrrolo[2,1-f][1,2,4]triazin-4-amine]: in assay [1], the “% inh” value is given as “B* (B* = 26-45% activation)”. Moreover, in assay [2], the pIC50 is > 6.82.
For `Cc1c(-c2ccn(C(C)C)n2)cn2nc(-c3nccn3C)nc(Nc3nccc(OCCO)n3)c12` [Compound 121, 2-((2-((6-(1-Isopropyl-1H-pyrazol-3-yl)-5-methyl-2-(1-methyl-1H-imidazol-2-yl)pyrrolo[2,1-f][1,2,4]triazin-4-yl)amino)pyrimidin-4-yl)oxy)ethan-1-ol], in that order: “A (A = 1-25% inhibition)” and 6.00 to 6.29.
In the case of `Cc1c(-c2ccn(C3CC3)n2)cn2nc(-c3nccn3C)nc(Nc3cc(OC4CC4)ccn3)c12` [Compound 142, N-(4-Cyclopropoxypyridin-2-yl)-6-(1-cyclopropyl-1H-pyrazol-3-yl)-5-methyl-2-(1-methyl-1H-imidazol-2-yl)pyrrolo[2,1-f][1,2,4]triazin-4-amine], in assay [1], the “% inh” value is on record as “C (C = 46-75% inhibition)”. Moreover, the pIC50 in assay [2] is > 6.82.
For the compound `Cc1c(-c2ccn(C3CC3)n2)cn2nc(-c3nccn3C)nc(O)c12` [Compound 134, 6-(1-Cyclopropyl-1H-pyrazol-3-yl)-5-methyl-2-(1-methyl-1H-imidazol-2-yl)pyrrolo[2,1-f][1,2,4]triazin-4-ol], the “% inh” value in assay [1] was “B (B = 26-45% inhibition)”. In addition, the pIC50 in assay [2] is < 6.00.
In the case of `Cc1c(-c2ccn(C)n2)cn2nc(-c3nccn3C)nc(Nc3cnccn3)c12` [Compound 120, 5-Methyl-2-(1-methyl-1H-imidazol-2-yl)-6-(1-methyl-1H-pyrazol-3-yl)-N-(pyrazin-2-yl)pyrrolo[2,1-f][1,2,4]triazin-4-amine], in assay [1], the “% inh” value is listed as “A* (A* = 1-25% activation)”. Further, the pIC50 in assay [2] was > 6.82.
For `Cc1c(-c2ccn(C)n2)cn2nc(-c3nccn3C)nc(Nc3cc(OCCO)ncn3)c12` [Compound 101, 2-((6-((5-Methyl-2-(1-methyl-1H-imidazol-2-yl)-6-(1-methyl-1H-pyrazol-3-yl)pyrrolo[2,1-f][1,2,4]triazin-4-yl)amino)pyrimidin-4-yl)oxy) ethan-1-ol], in that order: “D* (D* = 76-100% activation)” and 6.30 to 6.82.
For `Cc1c(-c2ccn(C)n2)cn2nc(-c3nccn3C)nc(Nc3cc(OC4CC4)ccn3)c12` [Compound 126, N-(4-Cyclopropoxypyridin-2-yl)-5-methyl-2-(1-methyl-1H-imidazol-2-yl)-6-(1-methyl-1H-pyrazol-3-yl)pyrrolo[2,1-f][1,2,4]triazin-4-amine], in that order: “A* (A* = 1-25% activation)” and > 6.82.
With `COc1ccnc(Nc2nc(-c3nccn3C)nn3cc(-c4cccnc4)c(C)c23)c1` [Compound 157, N-(4-Methoxy-pyridin-2-yl)-5-methyl-2-(1-methyl-1H-imidazol-2-yl)-6-(pyridin-3-yl)pyrrolo[2,1-f][1,2,4]triazin-4-amine], the “% inh” value in assay [1] is listed as “B* (B* = 26-45% activation)”. In assay [2], the pIC50 was > 6.82.

The record behind these values is patent US12459951B2, “Compounds that interact with RAS superfamily proteins for treatment of cancers, inflammatory diseases, rasopathies, and fibrotic disease” (SHY Therapeutics, LLC, priority 2022, dated 2025).
